Results published in patent publication US10494337B2, “(20S)-1-α,25-dihydroxy-24,24-difluoro-19-nor-vitamin D3 analogs and their pharmaceutical uses” (Wisconsin Alumni Research Foundation, priority 2015, dated 2019).

Columns and labels:
[1] = system: 24-hydroxylase gene reporter plasmid in rat osteosarcoma cells; experiment: 24-hydroxylase (24-OHase) transcription, luciferase reporter; settings: for EC50: Rattus norvegicus, read-out: 24OHase transcription ED50; for 24OHase transcription Ratio: average ratio of the 1α,25-(OH)2D3 ED50 to the ED50 for the analogue
Description: (§1) The experiments were carried out in duplicate on two different occasions. […] The binding ratio is the average ratio of the 1□,25-(OH)2D3 Ki to the Ki for the analogue. ^bInduction of differentiation of HL-60 promyelocytes to monocytes by 1□,25-(OH)2D3 (1) and the synthesized vitamin D analogues. Differentiation state was determined by measuring the percentage of cells reducing nitro blue tetrazolium (NBT). The experiment was repeated in duplicate two times. […] The differentiation activity ratio is the average ratio of the 1□,25-(OH)2D3 ED50 to the ED50 for the analogue. ^cTranscriptional assay in rat osteosarcoma cells stably transfected with a 24-hydroxylase gene reporter plasmid. […] The luciferase activity ratio is the average ratio of the 1□,25-(OH)2D3 ED50 to the ED50 for the analogue.

[2] = Bone calcium mobilization in vivo (serum calcium); set-up: species or system Sprague-Dawley rats; settings: rats on 0.02% Ca diet, four consecutive intraperitoneal doses, serum calcium 24 hours after the last dose
From the text: 2. In vivo Studies. Bone calcium mobilization and intestinal calcium transport.
Male, weanling Sprague-Dawley rats were purchased from Harlan (Indianapolis, Ind.). The animals were group housed and placed on Diet 11 (0.47% Ca)+AEK oil for one week followed by Diet 11 (0.02% Ca)+AEK oil for 3 weeks. The rats were then switched to a diet containing 0.47% Ca^26 for one week followed by two weeks on a diet containing 0.02% Ca. Dose administration began during the last week on 0.02% Ca diet. Four consecutive intraperitoneal doses were given approximately 24 hours apart. Twenty-four hours after the last dose, blood was collected from the severed neck and the concentration of serum calcium determined as a measure of bone calcium mobilization. The first 10 cm of the intestine was also collected for the intestinal calcium transport analysis using the everted gut sac method.^25

[3] = target: T1, full-length recombinant rat vitamin D receptor (Rattus norvegicus, UniProt P13053); experiment: Competitive VDR binding; settings: for VDR binding ratio: average ratio of the 1α,25-(OH)2D3 Ki to the Ki for the analogue
T1 sequence (P13053 1-423): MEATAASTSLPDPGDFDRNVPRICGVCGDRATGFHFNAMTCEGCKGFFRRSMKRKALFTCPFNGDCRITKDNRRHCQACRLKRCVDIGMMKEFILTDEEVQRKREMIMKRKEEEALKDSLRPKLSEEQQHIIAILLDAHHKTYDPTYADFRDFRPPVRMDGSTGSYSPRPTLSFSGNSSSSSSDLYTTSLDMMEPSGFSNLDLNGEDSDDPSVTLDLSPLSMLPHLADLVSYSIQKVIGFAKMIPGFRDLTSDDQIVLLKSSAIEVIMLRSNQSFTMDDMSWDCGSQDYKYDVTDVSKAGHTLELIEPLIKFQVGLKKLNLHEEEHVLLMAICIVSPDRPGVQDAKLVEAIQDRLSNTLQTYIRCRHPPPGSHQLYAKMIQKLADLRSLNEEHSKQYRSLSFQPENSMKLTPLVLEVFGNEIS
Description: as §1

HL-60 promyelocytes = experiment: HL-60 differentiation (NBT reduction); settings: for HL-60 differentiation ratio: average ratio of the 1α,25-(OH)2D3 ED50 to the ED50 for the analogue; for HL-60 differentiation activity, in words: compared with 1α,25-(OH)2D3
Description: as §1

[4] = background statement in the discussion; cited from earlier work
[5] = background statement in the discussion, compared with 1,25-(OH)2D3; cited from earlier work

SMILES	EC50 [1]	bone calcium mobilization activity, in words [2]	bone calcium mobilization activity, in words ([2]; listed as 24,24-difluoro substituted 19-nor-20S-2-methylene-1α,25-(OH)2D3)	Ki [3]	VDR binding ratio [3]	HL-60 differentiation ratio (HL-60 promyelocytes)	24OHase transcription Ratio [1]	24-OHase (CYP24A1) transcriptional activity, in words ([1]; compared with 1α,25-(OH)2D3 or 2MD)	melting point	HL-60 differentiation activity, in words (HL-60 promyelocytes)	VDR binding, in words ([3]; compared with 1α,25-(OH)2D3)	bone calcium mobilizing activity of 2MD, in words [4]	intestinal calcium absorption of 2MD, in words [5]
C=C1/C(=C\C=C2/CCC[C@@]3(C)C2CCC3[C@H](C)CCCC(C)(C)O)C[C@@H](O)C[C@@H]1O (stereo partly drawn) [Compound 1, 1α,25-dihydroxyvitamin D3, reference compound]	0.2 nM												
C=C1[C@H](O)CC(=C/C=C2\CCC[C@@]3(C)C2CCC3[C@@H](C)CCC(F)(F)C(C)(C)O)C[C@H]1O (stereo partly drawn) [Compound 4, (20S)-1α,25-Dihydroxy-24,24-difluoro-2-methylene-19-norvitamin D3]	0.02 nM	highest bone mobilization activity	bone calcium mobilization activity rivaling 2-methylene-19-nor-(20S)-1,25-dihydroxyvitamin D3 or 2MD	0.03 nM	1.3	100	10	almost as active as 2MD					
C=C1[C@H](O)CC(=C/C=C2\CCC[C@@]3(C)C2CCC3[C@H](C)CCC(F)(F)C(C)(C)O)C[C@H]1O (stereo partly drawn) [Compound 3, (20R)-1α,25-Dihydroxy-24,24-difluoro-2-methylene-19-norvitamin D3]	0.01 nM	not as potent in vivo as analogues 4 and 6		0.04 nM	1	30	20		163 to 164 °C	high potency			
C[C@H](CCC(F)(F)C(C)(C)O)C1CCC2/C(=C/C=C3C[C@@H](O)C[C@H](O)C3)CCC[C@@]21C (stereo partly drawn) [Compound 5, (20R)-1α,25-Dihydroxy-24,24-difluoro-19-norvitamin D3]	0.04 nM	not as potent in vivo as analogues 4 and 6		0.02 nM	2	60	5		182 to 183 °C	high potency	slightly more effective than 1α,25-(OH)2D3		
C=C1[C@H](O)CC(=C/C=C2\CCC[C@@]3(C)C2CCC3[C@@H](C)CCCC(C)(C)O)C[C@H]1O (stereo partly drawn) [Compound 2, 2-methylene-(20S)-1α,25-dihydroxy-19-nor vitamin D3, reference compound]	0.007 nM			0.03 nM	1.3	150	29					greatly increased bone calcium mobilizing activity	not increased above that found with 1,25-(OH)2D3
C[C@@H](CCC(F)(F)C(C)(C)O)C1CCC2/C(=C/C=C3C[C@@H](O)C[C@H](O)C3)CCC[C@@]21C (stereo partly drawn) [Compound 6, (20S)-1α,25-Dihydroxy-24,24-difluoro-19-norvitamin D3]	0.04 nM	highest bone mobilization activity		0.03 nM	1.3	50	5						
